We go through two compounds from patent publication US20210024981A1, “COMPOSITION FOR DETECTING DSRNAS, COMPRISING MEROCYANINE COMPOUND AND ISOMER THEREOF, AND METHOD FOR PROVIDING INFORMATION FOR DIAGNOSING CANCER, BY USING DSRNA EXPRESSION ANALYSIS” (KOREA ADVANCED INSTITUTE OF SCIENCE AND TECHNOLOGY, priority 2018, published 2021).

Data set [1] concerns ERV (THE1B, MTL2B4, MLT1C49 and MER21C) in HCT116 colorectal cancer cells. Kind of data set: RT-PCR (qPCR) to confirm ERV expression. Format: cell-based. The note with it: 5-AZA-CdR 500 nM. Here is the method:
According to a recent study, 5-AZA-CdR has been reported to promote apoptosis by increasing untranslated RNA called ERV (endogenous retroviral element), the dsRNA. Thus, whether the expression of ERV ([…], MTL2B4, MLT1C49 and MER21C genes) was increased by 5-AZA-CdR treatment was investigated.
Total RNA was isolated from the HCT116 colorectal cancer cells treated with 5-AZA-CdR in the same manner as described in Experimental Example <10-1>, to which DNase I was treated, and then cDNA was synthesized using RevertAid reverse transcriptase (Thermo Fisher Scientific). Using the synthesized cDNA as a template, qPCR was performed with the primers in Table 1 below.
On the technique in general: Real-time PCR tracks product formation cycle by cycle.

In data set [2] the test system is HCT116 colorectal cancer cells. Kind of data set: Apoptosis observed under a microscope. Format: cell-based. The settings on record: 5-AZA-CdR 500 nM, day 5.
Data set [3] relates to HCT116 colorectal cancer cells. Put plainly: dsRNA absorbance change rate after 5-AZA-CdR treatment. In kind it is cell-based. The note with it: 5-AZA-CdR 500 nM 24 hours, days 0, 1, 3 and 5. How it is done:
(§1) To compare the expression level of dsRNA between cancer cells and normal cells, total RNA was extracted by treating TRIsure reagents (Bioline) to 3 types of cancer cell lines (HeLa cervical cancer cells, HCT116 colorectal cancer cells and A549 lung cancer cells) and 2 types of normal cell lines (CCD-986sk cells and RPE-1 cells), respectively. The extracted total RNA (30 μg) was treated with RNase T1 (Worthington Inc.) in a volume of 1/10, and incubated at 37° C. for 30 minutes to remove ssRNA and rRNA. Then, dsRNA was purified using a phenol extraction method. The final concentration of the purified dsRNA was adjusted to 350 μM using tertiary distilled water, to which the spiropyran solution (12 μM, dissolved in tertiary distilled water) was added. After irradiating UV to the mixture, the rate of change in absorbance at 512 nm was measured for 2 minutes. The rate of change in absorbance was calculated in comparison with the control group using tertiary distilled water instead of dsRNA.
(§2) HCT116 colorectal cancer cells and HeLa cervical cancer cells were treated with 5-AZA-CdR (500 nM), respectively, and cultured for 24 hours. The medium was replaced with fresh medium and the cells were collected on days 0, 1, 3 and 5 to isolate dsRNA. The rate of change in absorbance of dsRNA in cancer cells was measured in the same manner as described in Experimental Example 9.

Data set [4] concerns HeLa cervical cancer cells. Described as above. In kind it is cell-based. The note with it: 5-AZA-CdR 500 nM 24 hours, day 5 vs day 0. How it is done:
as §1, §2

Data set [5] relates to MCF-7 breast cancer cells. The data set is described as above. In kind it is cell-based. The settings on record: 5-AZA-CdR 500 nM, day 7 compared to day 0. Here is the method: as §1
(§3) In addition, PANC-1 pancreatic cancer cells, MCF-7 breast cancer cells, A549 lung cancer cells and A375 melanoma cells were treated with 5-AZA-CdR (500 nM), respectively, and cultured for 24 hours. The medium was replaced with fresh medium and the cells were collected on days 0, 1, 3, 5 and 7 to isolate dsRNA. The rate of change in absorbance of dsRNA in cancer cells was measured in the same manner as described in Example 1.

In data set [6] the test system is A549 lung cancer cells. The data set is described as above. Format: cell-based. The settings on record: 5-AZA-CdR 500 nM, days 0-7. Here is the method:
as §1, §3

The test system of data set [7] is A375 melanoma cells. The description is as above. In kind it is cell-based. The note with it: 5-AZA-CdR 500 nM, days 0-7. Here is the method:
as §1, §3

Data set [8] concerns PANC-1 pancreatic cancer cells. The data set is described as above. In kind it is cell-based. The settings on record: 5-AZA-CdR 500 nM, day 7 compared to day 0. Here is the method:
as §1, §3

For data set [9], the system named is MCF-7 breast cancer cells. Kind of data set: Degree of apoptosis by MTT assay. In kind it is cell-based. The note with it: 5-AZA-CdR 500 nM. Here is the method:
(§4) HCT116 colorectal cancer cells, PANC-1 pancreatic cancer cells, MCF-7 breast cancer cells, A549 lung cancer cells and A375 melanoma cells were treated with 5-AZA-CdR in the same manner as described in Experimental Example <10-1>, and the degree of apoptosis was measured by MTT assay.
(In general: Tetrazolium assays rely on reduction of a dye to a coloured formazan, in cell work by metabolically active cells.)

For data set [10], the system named is A549 lung cancer cells. Put plainly: Degree of apoptosis by MTT assay. Format: cell-based. The note with it: 5-AZA-CdR 500 nM. How it is done:
as §4

The test system of data set [11] is HCT116 colorectal cancer cells. Kind of data set: Degree of apoptosis by MTT assay. Format: cell-based. The settings on record: 5-AZA-CdR 500 nM. How it is done:
as §4

Data set [12] concerns A375 melanoma cells. Put plainly: Degree of apoptosis by MTT assay. Format: cell-based. The note with it: 5-AZA-CdR 500 nM. How it is done: as §4
Data set [13] deals with PANC-1 pancreatic cancer cells. Put plainly: Degree of apoptosis by MTT assay. Format: cell-based. The settings on record: 5-AZA-CdR 500 nM. How it is done: as §4
Data set [14] relates to HeLa cervical cancer cells. Kind of data set: Apoptosis observed under a microscope. Format: cell-based. The settings on record: 5-AZA-CdR 500 nM, day 5.
Data set [15] concerns dsRNA (20 bp poly GC and poly AU). Put plainly: Binding of spiropyran (SP) or merocyanine (MC) and dsRNA, UV-Vis spectrometer. The settings on record: 12 μM solution, 20 bp poly GC and poly AU added, MC after 254 nm UV for 5 minutes. How it is done: The interaction of spiropyran (SP) or merocyanine (MC) with dsRNA was confirmed using a UV-Vis spectrometer. The spiropyran produced in Example 1 was prepared as a spiropyran solution (12 μM), and dsRNA was prepared by ordering 20 bp poly GC and poly AU from Bioneer Co., Ltd., respectively. After adding 200 μM of poly GC and poly AU to the spiropyran solution, spectral results were obtained using a UV-Vis spectrometer. The spiropyran produced in Example 1 was prepared as a spiropyran solution (12 μM), and dsRNA was prepared by ordering 20 bp poly GC and poly AU from Bioneer Co., Ltd., respectively. After irradiating 254 nm UV to the spiropyran solution for 5 minutes, poly GC and poly AU were added, respectively. Then, spectral results were obtained using a UV-Vis spectrometer.

The subject of a further data set is poly AU and poly GC. Put plainly: Effect of dsRNA on reversibility of SP and MC. The note with it: 200 μM poly AU or poly GC in sodium ion buffer; UV and 420 nm light alternately, 5 cycles at 1 minute intervals. Format: physicochemical. Here is the method:
The SP and MC in the isomer relationship can be converted reversibly to each other by irradiating UV or visible light. To confirm the effect of dsRNA on the reversibility of SP-MC, SP and 200 μM poly AU and poly GC were added to sodium ion buffer, respectively, and absorbance was measured by alternately irradiating the mixture with UV and 420 nm […] light in 5 cycles at 1 minute intervals. At this time, water was used instead of RNA as the control.

Entries after “also recorded” stand apart in the source; their conditions may differ.

As to `Nc1ncn([C@H]2C[C@H](O)[C@@H](CO)O2)c(=O)n1` [Example 5-AZA-CdR, 5-aza-2′-deoxycytidine], in data set [1] (day 5), the “expression level of MER21C, increase compared to day 0” value turned out to be 100 times. Besides, the “expression levels of THE1B, MTL2B4, MLT1C49 and MER21C” value in data set [1] (days 0 and 1) is on record as “almost unchanged”; in data set [1] (from day 3), “increased; also recorded: began to increase from day 3”. The results for the apoptosis result in [2] and in [14] were “apoptosis induced by 5-AZA-CdR was observed” and “apoptosis was not observed”, respectively. In addition, the results for the “rate of change in absorbance at 512 nm (dsRNA expression)” value in data set [3] and in [4] were “increased from day 3; also recorded: gradually increased with time” and “almost unchanged; also recorded: almost similar to that of day 0”, respectively. Further, the “dsRNA expression (rate of change in absorbance)” value in [5] was “slightly increased; also recorded: slight increase”; with A549 lung cancer cells [6], “no change; also recorded: little change”; in the data set on A375 melanoma cells [7], “no change; also recorded: little change”; in [8], “slightly increased; also recorded: slight increase”. Moreover, the “growth decreased compared to untreated control” value in data set [9] is listed as “about 20%”; in the data set with A549 lung cancer cells [10], “about 10%”; in [13], “about 20%”. Further, the “growth reduced compared to untreated control” value in data set [11] was “about 40%”. In addition, the “growth compared to untreated control” value in the data set on A375 melanoma cells [12] was “not reduced”.
On to `CC1(C)c2ccccc2N(CCC[N+](C)(C)C)C12C=Cc1cc([N+](=O)[O-])ccc1O2` (stereo not shown) [SP, 1′-(3″-trimethylammoniopropyl)-3′,3′-dimethyl-6-nitrospiro[(2H)-1-benzopyran-2,2′-indoline]iodide], for which the “binding to dsRNA (change in UV-Vis absorbance spectrum)” value in data set [15] is reported as “did not bind to dsRNA”; in data set [15] (listed as spiropyran) it was “not combined with dsRNA”. The “reversibility of SP-MC” value in the data set with poly AU and poly GC was “maintained independently from the presence or absence of dsRNA”.
